Measurements as given in PubChem BioAssay AID2060902 (Molecular Pharmacology Branch, DTP, NCI, 2025).
pIC50: −log10 of the molar value.

System: 485368-065-R3-J5-PDC spheroids with HUVEC/MSC, viability
Assay: Anticancer human tumor 485368-065-R3-J5-PDC patient-derived pancreatic carcinoma cell line growth inhibition [RAS]
Settings: for viability, T/C: stronger effect = lower value
Summary of the method: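 Tumour cells grown as complex spheroids with HUVEC endothelial cells and mesenchymal stem cells, treated with RAS pathway inhibitor combinations. Each agent spans half-log steps from near clinical Cmax, or 10 microM where Cmax is unknown.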

[1] = curve of first compound, second compound 0.000949 µM
[2] = curve of first compound, second compound 0.003 µM
[3] = curve of first compound, second compound 0.00949 µM
[4] = curve of first compound, second compound 0.03 µM
[5] = curve of first compound, second compound 0.0949 µM
[6] = curve of first compound, second compound 0.3 µM
[7] = second compound 0.000949 µM, first compound 0.0316 µM
[8] = second compound 0.000949 µM, first compound 0.1 µM
[9] = second compound 0.000949 µM, first compound 0.316 µM
[10] = second compound 0.000949 µM, first compound 1 µM
[11] = second compound 0.000949 µM, first compound 3.16 µM
[12] = second compound 0.000949 µM, first compound 10 µM
[13] = second compound 0.003 µM, first compound 0.0316 µM
[14] = second compound 0.003 µM, first compound 0.1 µM
[15] = second compound 0.003 µM, first compound 0.316 µM
[16] = second compound 0.003 µM, first compound 1 µM
[17] = second compound 0.003 µM, first compound 3.16 µM
[18] = second compound 0.003 µM, first compound 10 µM
[19] = second compound 0.00949 µM, first compound 0.0316 µM
[20] = second compound 0.00949 µM, first compound 0.1 µM
[21] = second compound 0.00949 µM, first compound 0.316 µM
[22] = second compound 0.00949 µM, first compound 1 µM
[23] = second compound 0.00949 µM, first compound 3.16 µM
[24] = second compound 0.00949 µM, first compound 10 µM
[25] = second compound 0.03 µM, first compound 0.0316 µM
[26] = second compound 0.03 µM, first compound 0.1 µM
[27] = second compound 0.03 µM, first compound 0.316 µM
[28] = second compound 0.03 µM, first compound 1 µM
[29] = second compound 0.03 µM, first compound 3.16 µM
[30] = second compound 0.03 µM, first compound 10 µM
[31] = second compound 0.0949 µM, first compound 0.0316 µM
[32] = second compound 0.0949 µM, first compound 0.1 µM
[33] = second compound 0.0949 µM, first compound 0.316 µM
[34] = second compound 0.0949 µM, first compound 1 µM
[35] = second compound 0.0949 µM, first compound 3.16 µM
[36] = second compound 0.0949 µM, first compound 10 µM
[37] = second compound 0.3 µM, first compound 0.0316 µM
[38] = second compound 0.3 µM, first compound 0.1 µM
[39] = second compound 0.3 µM, first compound 0.316 µM
[40] = second compound 0.3 µM, first compound 1 µM
[41] = second compound 0.3 µM, first compound 3.16 µM
[42] = second compound 0.3 µM, first compound 10 µM
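Also: spheroids exposed to agents for seven days before readout.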

`NC1c2ccccc2OC12CCN(c1cnc3c(N4CCCc5ncccc54)n[nH]c3n1)CC2` (stereo not given) + CCn1c(-c2cc(N3CCN(C)CC3)cnc2C(C)OC)c2c3cc(ccc31)-c1csc(n1)CC(NC(=O)C1CC1C)C(=O)N1CCCC(N1)C(=O)OCC(C)(C)C2 was tested, and the pIC50 [1] was > 7.50, the pIC50 [2] was > 7.50 and the pIC50 [3] was > 7.50. For the same compound, the pIC50 [4] was > 7.50, the pIC50 [5] was > 7.50 and the pIC50 [6] was > 7.50. The viability, T/C [7] was 20.7%, the viability, T/C [8] was 16% and the viability, T/C [9] was 14.1%. For the same compound, the viability, T/C [10] was 10.6%, the viability, T/C [11] was 5.97% and the viability, T/C [12] was 4.14%. The viability, T/C [13] was 15.1%, the viability, T/C [14] was 12.5% and the viability, T/C [15] was 9.36%. The viability, T/C [16] was 4.72%, the viability, T/C [17] was 3.77% and the viability, T/C [18] was 1.44%. For the same compound, the viability, T/C [19] was 12.7%, the viability, T/C [20] was 8.1% and the viability, T/C [21] was 5.43%. For the same compound, the viability, T/C [22] was 2.3%, the viability, T/C [23] was 2.03% and the viability, T/C [24] was 0.85%. It also gave a viability, T/C [25] of 7.1%, a viability, T/C [26] of 6.69% and a viability, T/C [27] of 3.1%. For the same compound, the viability, T/C [28] was 1.62%, the viability, T/C [29] was 0.67% and the viability, T/C [30] was 0.58%. It also gave a viability, T/C [31] of 6.28%, a viability, T/C [32] of 4.31% and a viability, T/C [33] of 2.01%. It also gave a viability, T/C [34] of 0.85%, a viability, T/C [35] of 0.88% and a viability, T/C [36] of 0.54%. For the same compound, the viability, T/C [37] was 6.78%, the viability, T/C [38] was 3.56% and the viability, T/C [39] was 2.12%. The viability, T/C [40] was 1%, the viability, T/C [41] was 0.91% and the viability, T/C [42] was 0.53%.

In the case of `CC(C)n1nc(-c2ccc3oc(N)nc3c2)c2c(N)ncnc21`, the viability, T/C (compound 0.000316 µM) was 106% [middle of 4 runs], the viability, T/C (compound 0.001 µM) was 91.4% [middle of 4 runs] and the viability, T/C (compound 0.00316 µM) was 89% [middle of 4 runs]. The viability, T/C (compound 0.01 µM) was 65.8% [middle of 4 runs], the viability, T/C (compound 0.0316 µM) was 42.8% [middle of 4 runs] and the viability, T/C (compound 0.1 µM) was 23.6% [middle of 4 runs]. The IC50 (curve of compound) was 22.7 nM [middle of 4 runs].

With `NC1c2ccccc2OC12CCN(c1cnc3c(N4CCCc5ncccc54)n[nH]c3n1)CC2` (stereo not given) + CCn1c(-c2cccnc2C(C)OC)c2c3cc(ccc31)N1CCOC(CC(NC(=O)C(C(C)C)N(C)C(=O)C3(F)CCN(C(=O)C#CC(C)(C)N(C)C)CC3)C(=O)N3CCCC(N3)C(=O)OCC(C)(C)C2)C1 the pIC50 [1] was < 5.00, the pIC50 [2] was < 5.00 and the pIC50 [3] was < 5.00. The pIC50 [4] was < 5.00, the pIC50 [5] was < 5.00 and the pIC50 [6] was < 5.00. The viability, T/C [7] was 84.7%, the viability, T/C [8] was 84.3% and the viability, T/C [9] was 81.9%. It also gave a viability, T/C [10] of 91.1%, a viability, T/C [11] of 86.6% and a viability, T/C [12] of 81.9%. It also gave a viability, T/C [13] of 85.7%, a viability, T/C [14] of 90.1% and a viability, T/C [15] of 82.8%. The viability, T/C [16] was 80.5%, the viability, T/C [17] was 92.8% and the viability, T/C [18] was 87.9%. For the same compound, the viability, T/C [19] was 89.7%, the viability, T/C [20] was 90.3% and the viability, T/C [21] was 82.6%. It also gave a viability, T/C [22] of 78.6%, a viability, T/C [23] of 88.9% and a viability, T/C [24] of 84.9%. The viability, T/C [25] was 98.7%, the viability, T/C [26] was 93% and the viability, T/C [27] was 82.7%. It also gave a viability, T/C [28] of 79.2%, a viability, T/C [29] of 83.6% and a viability, T/C [30] of 81.4%. For the same compound, the viability, T/C [31] was 82.3%, the viability, T/C [32] was 86.8% and the viability, T/C [33] was 81.1%. For the same compound, the viability, T/C [34] was 77%, the viability, T/C [35] was 87.7% and the viability, T/C [36] was 76.5%. For the same compound, the viability, T/C [37] was 78.3%, the viability, T/C [38] was 86.1% and the viability, T/C [39] was 75.3%. The viability, T/C [40] was 81.1%, the viability, T/C [41] was 98.2% and the viability, T/C [42] was 69.7%.

`NC1c2ccccc2OC12CCN(c1cnc3c(N4CCCc5ncccc54)n[nH]c3n1)CC2` (stereo not given) was tested, and the viability, T/C (compound 0.0316 µM) was 92.8% [middle of 4 runs], the viability, T/C (compound 0.1 µM) was 82.1% [middle of 4 runs] and the viability, T/C (compound 1 µM) was 70.1% [middle of 4 runs]. The pIC50 (curve of compound) was < 5.00.
